A value given as a limit tells only on which side of the number the result lay.

Test [1] deals with Beta-1 adrenergic receptor (Homo sapiens, UniProt P08588). It is filed as functional.
Test [2] addresses T1, Alpha-1A adrenergic receptor (Homo sapiens, UniProt P35348).
T1 sequence (P35348 whole entry): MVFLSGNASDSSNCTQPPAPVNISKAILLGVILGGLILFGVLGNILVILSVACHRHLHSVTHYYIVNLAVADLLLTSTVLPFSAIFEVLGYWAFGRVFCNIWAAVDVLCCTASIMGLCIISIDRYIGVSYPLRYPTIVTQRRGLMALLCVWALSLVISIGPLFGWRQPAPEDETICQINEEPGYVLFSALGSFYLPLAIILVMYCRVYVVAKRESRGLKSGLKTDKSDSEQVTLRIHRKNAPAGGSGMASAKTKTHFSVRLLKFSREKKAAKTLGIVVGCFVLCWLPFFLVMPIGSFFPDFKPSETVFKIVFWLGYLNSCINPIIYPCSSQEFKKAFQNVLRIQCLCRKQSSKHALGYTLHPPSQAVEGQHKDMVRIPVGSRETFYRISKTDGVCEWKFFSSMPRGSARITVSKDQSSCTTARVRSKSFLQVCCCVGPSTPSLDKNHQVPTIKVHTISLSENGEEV
It counts as functional, cell-based.

Test [3] concerns the target T2, Muscarinic acetylcholine receptor M2 (Homo sapiens, UniProt P08172).
T2 sequence (P08172 whole entry): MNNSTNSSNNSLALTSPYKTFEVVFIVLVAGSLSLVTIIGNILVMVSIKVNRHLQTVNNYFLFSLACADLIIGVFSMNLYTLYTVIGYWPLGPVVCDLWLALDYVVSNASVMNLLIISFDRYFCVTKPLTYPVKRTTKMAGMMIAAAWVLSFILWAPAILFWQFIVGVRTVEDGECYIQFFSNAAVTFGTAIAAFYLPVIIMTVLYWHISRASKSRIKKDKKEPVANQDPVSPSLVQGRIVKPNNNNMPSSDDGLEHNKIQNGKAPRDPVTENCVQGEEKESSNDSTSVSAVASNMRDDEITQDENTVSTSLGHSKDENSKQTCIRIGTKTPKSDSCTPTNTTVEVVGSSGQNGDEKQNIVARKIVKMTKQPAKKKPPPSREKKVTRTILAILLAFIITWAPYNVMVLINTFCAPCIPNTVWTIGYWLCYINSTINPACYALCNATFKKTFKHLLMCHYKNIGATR

In test [4] the target is T3, Muscarinic acetylcholine receptor M1 (Homo sapiens, UniProt P11229).
T3 sequence (P11229 whole entry): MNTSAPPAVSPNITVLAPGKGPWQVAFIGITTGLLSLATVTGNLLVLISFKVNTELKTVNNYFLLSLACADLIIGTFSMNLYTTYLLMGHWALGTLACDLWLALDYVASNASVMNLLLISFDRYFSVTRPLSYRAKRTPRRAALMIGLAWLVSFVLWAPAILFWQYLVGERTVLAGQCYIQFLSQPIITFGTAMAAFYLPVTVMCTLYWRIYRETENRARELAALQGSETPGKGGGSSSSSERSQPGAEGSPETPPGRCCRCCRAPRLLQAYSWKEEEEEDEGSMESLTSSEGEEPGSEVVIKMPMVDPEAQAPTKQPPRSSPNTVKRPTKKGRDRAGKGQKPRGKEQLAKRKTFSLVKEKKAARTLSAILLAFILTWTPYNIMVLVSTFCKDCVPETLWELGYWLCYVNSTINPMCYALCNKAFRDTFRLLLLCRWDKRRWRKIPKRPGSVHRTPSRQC
It is filed as functional, cell-based.

Test [5] has as its target T1, Alpha-1A adrenergic receptor. It is filed as functional, cell-based. This is another data set of the same source.
Test [6] has as its target T4, Alpha-2A adrenergic receptor (Homo sapiens, UniProt P08913).
T4 sequence (P08913 whole entry): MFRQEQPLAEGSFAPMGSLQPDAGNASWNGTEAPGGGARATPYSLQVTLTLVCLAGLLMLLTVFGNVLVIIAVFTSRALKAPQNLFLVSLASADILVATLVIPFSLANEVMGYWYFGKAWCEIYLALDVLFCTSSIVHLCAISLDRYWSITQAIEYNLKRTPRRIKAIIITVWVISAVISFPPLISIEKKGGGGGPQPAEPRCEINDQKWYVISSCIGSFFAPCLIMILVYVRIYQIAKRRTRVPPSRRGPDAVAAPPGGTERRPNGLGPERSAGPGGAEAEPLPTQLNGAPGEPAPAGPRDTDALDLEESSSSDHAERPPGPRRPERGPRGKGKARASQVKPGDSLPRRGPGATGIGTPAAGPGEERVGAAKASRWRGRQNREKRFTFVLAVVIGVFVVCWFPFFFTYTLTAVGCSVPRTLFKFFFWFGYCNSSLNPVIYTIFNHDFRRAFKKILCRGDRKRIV
It is filed as functional, cell-based.

The target of test [7] is T4, Alpha-2A adrenergic receptor.
Test [8] deals with Cannabinoid receptor 1 (Homo sapiens, UniProt P21554). It is filed as functional, cell-based.
Chain of Cannabinoid receptor 1 (P21554 whole entry): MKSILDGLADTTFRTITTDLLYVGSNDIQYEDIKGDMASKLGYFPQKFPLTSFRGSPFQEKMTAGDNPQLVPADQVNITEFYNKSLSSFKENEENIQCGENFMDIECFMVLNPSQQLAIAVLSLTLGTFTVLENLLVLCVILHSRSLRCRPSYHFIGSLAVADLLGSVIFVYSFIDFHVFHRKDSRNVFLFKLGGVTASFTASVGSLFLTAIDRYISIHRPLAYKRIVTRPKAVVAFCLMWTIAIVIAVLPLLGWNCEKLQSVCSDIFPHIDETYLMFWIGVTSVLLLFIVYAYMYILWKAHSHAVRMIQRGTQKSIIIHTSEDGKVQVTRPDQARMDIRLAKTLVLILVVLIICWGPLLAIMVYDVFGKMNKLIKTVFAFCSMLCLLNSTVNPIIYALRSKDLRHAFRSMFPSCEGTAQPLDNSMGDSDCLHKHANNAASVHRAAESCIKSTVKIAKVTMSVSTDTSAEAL
For test [9], the target named is Histamine H1 receptor (Homo sapiens, UniProt P35367).
Chain of Histamine H1 receptor (P35367 whole entry): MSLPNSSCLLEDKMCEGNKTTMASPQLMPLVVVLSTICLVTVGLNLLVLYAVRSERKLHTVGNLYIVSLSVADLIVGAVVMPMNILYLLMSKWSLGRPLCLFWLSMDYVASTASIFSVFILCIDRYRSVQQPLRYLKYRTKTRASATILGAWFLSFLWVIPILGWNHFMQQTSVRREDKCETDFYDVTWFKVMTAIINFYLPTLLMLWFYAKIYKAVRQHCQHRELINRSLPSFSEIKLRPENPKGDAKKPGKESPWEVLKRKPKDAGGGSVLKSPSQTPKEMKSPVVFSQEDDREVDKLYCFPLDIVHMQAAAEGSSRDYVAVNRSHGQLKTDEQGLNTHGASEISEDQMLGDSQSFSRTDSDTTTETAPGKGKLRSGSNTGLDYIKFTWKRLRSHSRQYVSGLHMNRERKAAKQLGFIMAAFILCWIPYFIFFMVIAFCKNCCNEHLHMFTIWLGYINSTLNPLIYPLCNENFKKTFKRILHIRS
The target of test [10] is T5, Glucocorticoid receptor (Homo sapiens, UniProt P04150).
T5 sequence (P04150 whole entry): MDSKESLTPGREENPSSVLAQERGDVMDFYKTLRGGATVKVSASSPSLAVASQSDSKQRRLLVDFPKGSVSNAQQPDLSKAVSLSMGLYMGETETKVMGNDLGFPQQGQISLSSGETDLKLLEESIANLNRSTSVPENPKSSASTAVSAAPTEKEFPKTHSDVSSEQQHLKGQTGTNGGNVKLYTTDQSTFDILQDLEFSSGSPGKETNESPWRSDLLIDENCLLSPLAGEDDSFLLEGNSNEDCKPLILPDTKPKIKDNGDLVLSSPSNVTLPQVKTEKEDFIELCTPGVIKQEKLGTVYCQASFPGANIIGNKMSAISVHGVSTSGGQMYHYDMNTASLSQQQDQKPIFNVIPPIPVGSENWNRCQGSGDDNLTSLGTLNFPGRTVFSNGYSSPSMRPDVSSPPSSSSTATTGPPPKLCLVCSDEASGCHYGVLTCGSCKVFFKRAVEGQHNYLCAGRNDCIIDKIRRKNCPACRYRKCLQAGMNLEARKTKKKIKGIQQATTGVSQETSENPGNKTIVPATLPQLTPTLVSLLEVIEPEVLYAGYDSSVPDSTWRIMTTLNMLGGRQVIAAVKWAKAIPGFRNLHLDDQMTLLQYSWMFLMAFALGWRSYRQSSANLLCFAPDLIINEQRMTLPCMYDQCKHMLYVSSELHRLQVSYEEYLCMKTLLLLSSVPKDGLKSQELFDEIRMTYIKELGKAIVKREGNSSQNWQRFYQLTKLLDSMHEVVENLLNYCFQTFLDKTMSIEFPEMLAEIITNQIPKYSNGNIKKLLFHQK
Also: assay procedure not described here.

Chain of Beta-1 adrenergic receptor (P08588 whole entry): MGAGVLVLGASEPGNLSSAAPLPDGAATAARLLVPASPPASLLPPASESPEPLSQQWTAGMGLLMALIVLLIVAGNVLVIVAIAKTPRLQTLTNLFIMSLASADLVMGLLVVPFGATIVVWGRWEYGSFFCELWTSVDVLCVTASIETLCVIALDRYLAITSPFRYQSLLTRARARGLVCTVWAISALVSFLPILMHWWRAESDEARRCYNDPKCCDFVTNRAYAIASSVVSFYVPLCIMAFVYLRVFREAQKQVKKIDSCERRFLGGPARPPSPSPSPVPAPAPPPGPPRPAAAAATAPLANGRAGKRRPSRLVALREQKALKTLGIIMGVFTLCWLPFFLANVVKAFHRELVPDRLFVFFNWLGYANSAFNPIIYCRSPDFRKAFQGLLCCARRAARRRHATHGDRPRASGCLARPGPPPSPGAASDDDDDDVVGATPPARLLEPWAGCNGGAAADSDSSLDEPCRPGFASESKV

Regarding `CCC(=O)O[C@]1(C(=O)SCF)[C@H](C)C[C@H]2[C@@H]3C[C@H](F)C4=CC(=O)C=C[C@]4(C)[C@@]3(F)[C@@H](O)C[C@@]21C` [FLUTICASONE PROPIONATE], the AC50 in test [1], in test [2], in [3], in test [4], in [5] and in test [6] was greater than 30 µM in each case. Besides, the AC50 in test [7], in [8] and in test [9] was greater than 30 µM throughout.

With `CN1CCN(C2=Nc3ccccc3Oc3ccc(Cl)cc32)CC1` [LOXAPINE], the AC50 was greater than 10 µM in test [1]; 0.0734 µM in test [2]; greater than 30 µM in test [4]; 0.44 µM in test [5]; greater than 30 µM in test [10]; greater than 30 µM in test [8].

As to `CC[C@@H]([C@H](C)O)n1ncn(-c2ccc(N3CCN(c4ccc(OC[C@@H]5CO[C@@](Cn6cncn6)(c6ccc(F)cc6F)C5)cc4)CC3)cc2)c1=O` [POSACONAZOLE], the AC50 in test [2] was greater than 1 µM; in [3], greater than 30 µM; in test [4], greater than 30 µM; in test [7], greater than 30 µM; in test [9], greater than 30 µM.

Turning to `Cc1ncc(COP(=O)(O)O)c(C=O)c1O` [PYRIDOXAL PHOSPHATE ANHYDROUS], the AC50 in [2], in test [3], in test [4] and in [7] was greater than 30 µM throughout.

Consider `c1ccc2c(c1)CCc1ccccc1N2C1CN2CCC1CC2` (configuration not stated) [QUINUPRAMINE], for which the AC50 in test [2] was 2.41 µM; in test [3] it was 0.0329 µM; in test [4], greater than 30 µM; in test [7], 13.2 µM.

For `C[C@H](Cc1cc2c(c(C(N)=O)c1)N(CCCO)CC2)NCCOc1ccccc1OCC(F)(F)F` [SILODOSIN], the AC50 was 0.003 µM in [2]; greater than 30 µM in test [3]; greater than 30 µM in test [4]; 0.0029 µM in test [5]; 10 µM in test [6]; 1.28 µM in [7].

On to `CC1=CCC(C(C)(C)O)CC1O` (configuration not stated) [SOBREROL], for which the AC50 in test [2], in test [3], in [4] and in test [7] was greater than 30 µM throughout.

Take `CCOC(=O)N1CSC[C@H]1C(=O)O` [TELMESTEINE]: the AC50 in test [2], in [3], in [4] and in test [7] was greater than 30 µM in each case.

(Values after ChEMBL document CHEMBL5291721, “A preclinical secondary pharmacology resource illuminates target-adverse drug reaction associations of marketed drugs” (Nat Commun, 2023).)
